Molecules are shown by their SMILES. pIC50: −log10 of the molar value.

The results in this text go back to patent US20220324835A1 (Nurix Therapeutics, Inc., priority 2018, published 2022).

Test [1] concerns the target T1, Cbl-b (Homo sapiens, UniProt Q13191). In words: Cbl-b inhibition assay (Cbl-b activity assay, FRET, Biological Example 1; 100 mM NaCl, 60 nM Src kinase). The settings on record: upper bound stated in text lists; read-out: IC50 values in the Cbl-b inhibition assay of Biological Example 1. The class given is biochemical. The procedure, abridged:
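N-terminally biotinylated Avi-tagged Cbl-b was mixed with Src kinase, UbcH5B covalently conjugated to Bodipy-fluorescein ubiquitin, and streptavidin-terbium. Src phosphorylation lets Cbl-b bind UbcH5B-Ub, giving terbium-fluorescein FRET; inhibition is read as loss of FRET signal.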

Test [2] concerns T-cell. Nature of the test: IL-2 secretion from T-cells co-stimulated with anti-CD3 and anti-CD28 antibody (Biological Example 2). The class given is cell-based, human. The settings on record: Homo sapiens, T-cell, primary human total T-cells, baseline = anti-CD3/anti-CD28 stimulated cells without inhibitor, read-out: IL-2 secretion, Anti-CD3/Anti-CD28 stimulation, fold change over baseline; for fold induction at 0.3 µM: 0.3 μM compound; for fold induction at 1 µM: 1 μM compound; for fold induction at 4 µM: 4 μM compound. The procedure, abridged: (§1)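 Values are fold-change over baseline: readings (IL-2 release, CD25 staining) from inhibitor-treated T-cells divided against untreated cells […]. No detailed procedure stated.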

In test [3] the test system is T-cell. In words: CD25 cell surface staining on T-cells co-stimulated with anti-CD3 and anti-CD28 antibody (Biological Example 2). The class given is cell-based, human. The settings on record: Homo sapiens, T-cell, primary human total T-cells, baseline = anti-CD3/anti-CD28 stimulated cells without inhibitor, read-out: CD25 staining, Anti-CD3/Anti-CD28 stimulation, fold change over baseline; for fold induction at 0.3 µM: 0.3 μM compound; for fold induction at 1 µM: 1 μM compound; for fold induction at 4 µM: 4 μM compound. The procedure, abridged: as §1

The target in test [4] is T1, Cbl-b. Nature of the test: Cbl-b activity assay (Cbl-b inhibition assay), TR-FRET of Cbl-b interaction with UbcH5B-Ub. The class given is biochemical. Particulars: assay buffer with 100 mM NaCl, 60 nM Src kinase; read-out: Cbl-b activity IC50. The procedure, abridged: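 Compound-treated Cbl-b was incubated 1.5 h with Src kinase (60 nM final; 30 nM for asterisked values, which also used 50 mM instead of 100 mM NaCl), 1 mM ATP and 5 mM MgCl2. Binding to fluorescent Ub-loaded UbcH5B (C85K mutant) was then read by TR-FRET after 1 h more.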
(In general: Time-resolved FRET reads energy transfer from a long-lived donor to a nearby acceptor.)

Test [5] relates to T-cell. Nature of the test: IL-2 secretion from T-cells stimulated with anti-CD3 antibody alone (Biological Example 2). The class given is cell-based. The settings on record: primary human total T-cells, read-out: IL-2 secretion, Anti-CD3 stimulation, fold change over baseline; for fold induction at 1 µM: 1 μM compound; for fold induction at 8 µM: 8 μM compound.
Test [6] relates to T-cell. Nature of the test: CD25 cell surface staining on T-cells stimulated with anti-CD3 antibody alone (Biological Example 2). The class given is cell-based. Particulars: primary human total T-cells, baseline = anti-CD3/anti-CD28 stimulated cells without inhibitor, read-out: CD25 staining, Anti-CD3 stimulation, fold change over baseline; for fold induction at 1 µM: 1 μM compound; for fold induction at 8 µM: 8 μM compound.

T1 sequence (Q13191 36-427): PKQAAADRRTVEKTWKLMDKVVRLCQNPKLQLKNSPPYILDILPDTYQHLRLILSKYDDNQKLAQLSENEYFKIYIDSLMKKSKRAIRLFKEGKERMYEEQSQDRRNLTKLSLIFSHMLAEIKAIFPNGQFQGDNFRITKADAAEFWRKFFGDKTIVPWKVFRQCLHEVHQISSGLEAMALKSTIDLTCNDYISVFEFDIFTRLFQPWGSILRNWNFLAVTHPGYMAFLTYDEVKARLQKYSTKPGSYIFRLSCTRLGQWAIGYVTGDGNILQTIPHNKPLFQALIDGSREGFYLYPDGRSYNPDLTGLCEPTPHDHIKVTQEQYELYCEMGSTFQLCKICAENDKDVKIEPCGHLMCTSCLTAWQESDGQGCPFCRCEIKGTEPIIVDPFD

In the case of `C[C@H](Cc1nncn1C)c1cccc(N2Cc3c(cc([C@H](C)N4CC[C@H](F)C4)cc3C(F)(F)F)C2=O)c1` [Compound 404, 6-((S)-1-((S)-3-fluoropyrrolidin-1-yl)ethyl)-2-(3-((R)-1-(4-methyl-4H-1,2,4-triazol-3-yl)propan-2-yl)phenyl)-4-(trifluoromethyl)isoindolin-1-one], the pIC50 in test [1] was no less than 7.00; in test [4] it was greater than 7.00. For the same compound, the fold induction at 0.3 µM in test [2] is greater than 7.5; in test [3], 1.31 to 1.5. For the same compound, the fold induction at 1 µM in test [2] is greater than 7.5; in test [3], 1.31 to 1.5; in test [5] it was greater than 0.201; in test [6] it was greater than 1. The fold induction at 4 µM was greater than 7.5 in test [2] and 1.31 to 1.5 in test [3]. The fold induction at 8 µM is greater than 0.201 in test [5] and greater than 1 in test [6].
In the case of `C[C@H](Cc1nncn1C)c1cccc(N2Cc3c(cc([C@@H](C)N4CC(O)C4)cc3C(F)(F)F)C2=O)c1` [Compound 405, 6-((R)-1-(3-hydroxyazetidin-1-yl)ethyl)-2-(3-((R)-1-(4-methyl-4H-1,2,4-triazol-3-yl)propan-2-yl)phenyl)-4-(trifluoromethyl)isoindolin-1-one], the pIC50 in test [1] was no less than 7.00; in test [4] it was greater than 7.00. Besides, the fold induction at 0.3 µM in test [2] fell in the range of 2.51 to 5; in test [3] it was 1.01 to 1.3. In addition, the fold induction at 1 µM in test [2] is 5 to 7.5; in test [3], 1.31 to 1.5; in test [5] it was greater than 0.201; in test [6] it was 0.801 to 1. Further, the fold induction at 4 µM is greater than 7.5 in test [2] and 1.31 to 1.5 in test [3]. Further, the figures for the fold induction at 8 µM in test [5] and in test [6] were greater than 0.201 and greater than 1, respectively.
Take `C[C@H](Cc1nncn1C)c1cccc(N2Cc3c(cc([C@H](C)N4CC(O)C4)cc3C(F)(F)F)C2=O)c1` [Compound 406, 6-((S)-1-(3-hydroxyazetidin-1-yl)ethyl)-2-(3-((R)-1-(4-methyl-4H-1,2,4-triazol-3-yl)propan-2-yl)phenyl)-4-(trifluoromethyl)isoindolin-1-one]: the negative logarithm of the IC50 (pIC50) in test [1] is no less than 7.00; in test [4], greater than 7.00. For the same compound, the fold induction at 0.3 µM in test [2] was 5 to 7.5; in test [3] it was 1.01 to 1.3. Also, the fold induction at 1 µM in test [2] is greater than 7.5; in test [3], 1.31 to 1.5; in test [5] it was greater than 0.201; in test [6], greater than 1. Further, the fold induction at 4 µM in test [2] is greater than 7.5; in test [3] it was 1.31 to 1.5. Besides, the fold induction at 8 µM in test [5] is greater than 0.201; in test [6], greater than 1.
For `Cn1cnnc1[C@@H]1C[C@@H]1c1cccc(N2Cc3c(cc(CN4CC[C@H](F)C4)cc3C(F)(F)F)C2=O)c1` [Compound 409, 6-(((S)-3-fluoropyrrolidin-1-yl)methyl)-2-(3-((1S,2R)-2-(4-methyl-4H-1,2,4-triazol-3-yl)cyclopropyl)phenyl)-4-(trifluoromethyl)isoindolin-1-one], the values for the pIC50 in test [1] and in test [4] were no less than 7.00 and greater than 7.00, respectively. For the same compound, the fold induction at 0.3 µM in test [2] lay within 2.51 to 5; in test [3] it was 1.31 to 1.5. For the same compound, the fold induction at 1 µM in test [2] is greater than 7.5; in test [3] it was 1.31 to 1.5; in test [5], greater than 0.201; in test [6], greater than 1. The fold induction at 4 µM in test [2] is greater than 7.5; in test [3], 1.51 to 1.75. Also, the results for the fold induction at 8 µM in test [5] and in test [6] were greater than 0.201 and greater than 1, respectively.
In the case of `Cn1cnnc1CC1(c2cccc(N3Cc4c(cc(CN5C[C@@H](F)[C@@H](F)C5)cc4C(F)(F)F)C3=O)c2)COC1` [Compound 414, 6-((cis-3,4-Difluoropyrrolidin-1-yl)methyl)-2-(3-(3-((4-methyl-4H-1,2,4-triazol-3-yl)methyl)oxetan-3-yl)phenyl)-4-(trifluoromethyl)isoindolin-1-one], the figures for the pIC50 in test [1] and in test [4] were no less than 7.00 and greater than 7.00, respectively. Also, the fold induction at 0.3 µM in test [2] was greater than 7.5; in test [3], 1.31 to 1.5. The fold induction at 1 µM in test [2] was greater than 7.5; in test [3] it was 1.31 to 1.5; in test [5], 0.151 to 0.2; in test [6], 0.801 to 1. The fold induction at 4 µM in test [2] was greater than 7.5; in test [3] it was 1.51 to 1.75. The fold induction at 8 µM in test [5] is greater than 0.201; in test [6], greater than 1.
With `C[C@H](c1cc2c(c(C(F)(F)F)c1)CN(c1cccc(C3(Cc4nncn4C)COC3)c1)C2=O)N1CCC(F)(F)C1` [Compound 419, (R)-6-(1-(3,3-difluoropyrrolidin-1-yl)ethyl)-2-(3-(3-((4-methyl-4H-1,2,4-triazol-3-yl)methyl)oxetan-3-yl)phenyl)-4-(trifluoromethyl)isoindolin-1-one], the pIC50 in test [1] is no less than 7.00; in test [4], greater than 7.00. Further, the fold induction at 0.3 µM in test [2] was 2.51 to 5; in test [3], 1.01 to 1.3. The fold induction at 1 µM in test [2] is greater than 7.5; in test [3] it was 1.31 to 1.5; in test [5], 0.151 to 0.2; in test [6], greater than 1. For the same compound, the fold induction at 4 µM in test [2] is greater than 7.5; in test [3], 1.31 to 1.5. For the same compound, the fold induction at 8 µM in test [5] is greater than 0.201; in test [6] it was greater than 1.
As for `C[C@@H](c1cc2c(c(C(F)(F)F)c1)CN(c1cccc(C3(Cc4nncn4C)COC3)c1)C2=O)N1CCC(F)(F)C1` [Compound 420, (S)-6-(1-(3,3-difluoropyrrolidin-1-yl)ethyl)-2-(3-(3-((4-methyl-4H-1,2,4-triazol-3-yl)methyl)oxetan-3-yl)phenyl)-4-(trifluoromethyl)isoindolin-1-one], the pIC50 is no less than 7.00 in test [1] and greater than 7.00 in test [4]. For the same compound, the fold induction at 0.3 µM is 2.51 to 5 in test [2] and 1.31 to 1.5 in test [3]. Moreover, the fold induction at 1 µM was greater than 7.5 in test [2], 1.31 to 1.5 in test [3], 0.151 to 0.2 in test [5] and greater than 1 in test [6]. Besides, the fold induction at 4 µM was greater than 7.5 in test [2] and 1.31 to 1.5 in test [3]. Moreover, the fold induction at 8 µM is greater than 0.201 in test [5] and greater than 1 in test [6].
On to `Cn1cnnc1CC1(c2cccc(N3Cc4c(cc(CN5CC(C#N)C5)cc4C(F)(F)F)C3=O)c2)COC1` [Compound 423, 1-((2-(3-(3-((4-methyl-4H-1,2,4-triazol-3-yl)methyl)oxetan-3-yl)phenyl)-3-oxo-7-(trifluoromethyl)isoindolin-5-yl)methyl)azetidine-3-carbonitrile], for which the pIC50 in test [1] is no less than 7.00; in test [4] it was greater than 7.00. Further, the fold induction at 0.3 µM in test [2] was 2.51 to 5; in test [3], 1.01 to 1.3. The fold induction at 1 µM in test [2] lay in the range of 5 to 7.5; in test [3] it was 1.01 to 1.3; in test [5], 0.151 to 0.2; in test [6], 0.801 to 1. In addition, the results for the fold induction at 4 µM in test [2] and in test [3] were greater than 7.5 and 1.31 to 1.5, respectively. The figures for the fold induction at 8 µM in test [5] and in test [6] were greater than 0.201 and greater than 1, respectively.

By pIC50 is commonly meant −log10 of the IC50, conventionally taken in molar units.
